Experimental data taken from US10561666B2, “Amido compounds as RORγt modulators and uses thereof” (New York University, priority 2010, dated 2020).

Columns and labels:
[1] = molecular target: RORγt (Mus musculus, UniProt P51450, T352K); assay: RORγt S2 cell Gal4-luciferase reporter assay; settings: for Emax: read-out: Efficacy (%)
Excerpt: Methods: The Drosophila S2 cell line was originally purchased from Invitrogen and was maintained in Schneider's medium supplemented with 10% heat-inactivated bovine fetal calf serum and antibiotics (Invitrogen). […] The resulting chimeric gene was subcloned into the copper inducible pMT/V5-His A vector (available from Invitrogen).
In order to generate stable cell lines, cells were co-transfected with pMT-G4DBD-RORγt, pMT-G4DBD-RORα, pMT-G4DBD-DHR3, or pMT-G4DBDVP16 and pHygro plasmids (Invitrogen) and screened for resistant colonies in the presence of hygromycin (0.3 mg/mL).
Methods: 600 G4DBD-RORγ/γt-luc reporter (#25) or G4DBD-VP16-luc reporter cells were distributed into each well of 1,536-well white bottom plates in 4 μl S2 cell culture volume containing hygromicin (300 μg/ml) and puromycin (2 μg/ml). […] After one-hour incubation, 1 μl of culture medium solution containing copper sulfate (to final 0.7 mM) and 10 μM RORγ/γt antagonists were added to each well. After 20-hour incubation at ambient temperature, 1.5 μl firefly luciferase detection mix was added and the luciferase activities were measured in 10 min. ViewLux luminometers were used for measuring luciferase signal.
Since their cognate DNA binding sites were not well characterized, the DNA binding domains (DBD) of RORγ/γt, RORα (mouse homolog for POPγ), and DHR3 (Drosophila orthologue for ROR family proteins) were replaced with the heterologous yeast GAL4 DBD. The transcriptionally active domain of general transcriptional activator VP16 was also fused with GAL4 DBD. The GAL4 fusion constructs were placed under the control of a copper inducible promoter, and stable S2 cell lines with genomic integration of these four reporter constructs were generated. The copper inducible promoter ensures tight regulation of GAL4-fusion protein expression and it allows small molecules to get into the cells prior to protein induction, thus increasing their effects on GAL4 reporters. The stable reporter cell lines also encode the firefly luciferase reporter, whose expression is regulated by five copies of the GAL4 binding site enhancer (UAS), along with the pol III-driven Renilla luciferase reporter.
A cell-based reporter assay was used to detect RORγt-mediated activity. This assay, called RORγt□ employed Drosophila Schneider cells that were stably transfected with two vectors: a gene expressing a fusion of the Gal4 DNA binding domain and RORγt transactivation domain under the control of the metallothionine promoter and a Photinus luciferase reporter regulated by the Gal4 binding site enhancer, UAS. […] Cells (600/well) were dispensed into white solid 1536-well plates (Greiner) using a solenoid-based dispenser. Following transfer of 23 nL compound or DMSO vehicle by a pin tool, the plates were incubated 1 hr at ambient temperature, and 1 uL/well copper sulfate (700 uM final concentration) was added. The plates were centrifuged 15 s at 1000 RPM and incubated 20 hr at ambient temperature. After addition of 1.5 uL Photinus luciferase detection reagent, the plates were incubated 10 min at ambient temperature and then read by a ViewLux (Perkin Elmer) to detect luminescence. […] Efficacy is expressed as % of the maximal response of control inhibitor (Digoxin), set at 100%.

[2] = system: mouse Th17 polarization; assay: Mouse Th17 polarization assay (IL-17a producing cells); format: cell-based; settings: for IC50: naive mouse CD4 T cells, TGFβ and IL6, compounds added Day 1, analyzed Day 4, IL-17a producing cells, read-out: Th 17 IC50
Procedure: Effects of compound derivatives at various concentrations on mouse Th17 polarization. Percentage of DMSO treated IL-17a producing cells was set at 100. Naive mouse CD4 T cells (CD25^−, CD62L^+, and CD44^int-high) were sorted and cultured with CD3/CD28 stimulatory antibodies in the presence of TGFβ (0.1 ng/ml) and IL6 (20 ng/ml). Compounds were added on Day 1 and cells were analyzed on Day 4. For intracellular cytokine staining, cells were incubated for 5 h with phorbol ester (50 ng/ml; Sigma), ionomycin (500 ng/ml; Sigma) and GolgiStop (BD). When needed, surfaces were stained by incubation for 15 min on ice with PECy7-conjugated CD4 (BD Biosciences). The Cytofix/Cytoperm buffer set (BD) was used for intracellular staining. Cells were fixed and made permeable for 30 min on ice and were stained for 30 min on ice in permeabilization buffer with Alexa647-conjugated anti-IL17 (eBioscience) and PE-conjugated anti-IFNg (eBioscience). An LSR II (BD Biosciences) and FlowJo software (Tree Star) were used for flow cytometry. RORg IC50 value acquired from the S2 cell reporter assay is listed for comparison.
(§1) Naive CD4 T cells (CD25^−, CD62L^+, and CD44^int-high) were sorted and cultured with CD3/CD28 stimulatory antibodies in the presence of TGFβ (0.1 ng/ml) and IL6 (20 ng/ml). Compounds were added on Day 1 and cells were analyzed on Day 4. For intracellular cytokine staining, cells were incubated for 5 h with phorbol ester (50 ng/ml; Sigma), ionomycin (500 ng/ml; Sigma) and GolgiStop (BD). When needed, surfaces were stained by incubation for 15 min on ice with PECy7-conjugated CD4 (BD Biosciences). The Cytofix/Cytoperm buffer set (BD) or FoxP3 staining kit (eBioscience) were used for intracellular staining. Cells were fixed and made permeable for 30 min on ice and were stained for 30 min on ice in permeabilization buffer with Alexa647-conjugated anti-IL17 (eBioscience), PE-conjugated anti-IFNg (eBioscience), and/or PE-conjugated anti-FoxP3 (eBioscience). An LSR II (BD Biosciences) and FlowJo software (Tree Star) were used for flow cytometry.

[3] = molecular target: T1, recombinant human RORγ LBD (Homo sapiens, UniProt P51449); assay: In vitro competition assay, fluorescence polarization with labeled 25-hydroxycholesterol; format: binding; settings: various concentrations
T1 construct: recombinant human RORγ LBD was loaded with fluorescently-labeled 25-hydroxycholesterol
T1 sequence (P51449 269-508 limits assumed): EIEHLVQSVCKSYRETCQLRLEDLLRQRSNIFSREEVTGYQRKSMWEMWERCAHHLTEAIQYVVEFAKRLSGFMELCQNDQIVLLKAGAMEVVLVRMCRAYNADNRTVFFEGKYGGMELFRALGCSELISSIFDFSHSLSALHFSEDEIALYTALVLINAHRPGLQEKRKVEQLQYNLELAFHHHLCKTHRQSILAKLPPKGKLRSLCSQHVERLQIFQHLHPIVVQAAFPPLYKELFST
Excerpt: The presence of increasing concentrations of NCGC00166547 was correlated with displacement of the fluorescently-labeled 25-hydroxycholesterol from the LBD.

[4] = system: Th1 differentiation; assay: Mouse Th1 differentiation counter-screen (IFNγ production); format: cell-based; settings: 20 μM, naive CD4 T cells, IL12 and IL2 (FIG. 4)
Procedure: as §1
For Th1 differentiation, IL12 (10 ng/ml) and IL2 (10 U) was added to naive CD4 T cell cultures instead of TGFβ and IL6.

[5] = system: human Th17 cell differentiation; assay: Human Th17 cell differentiation of naive cord blood T cells; format: cell-based; settings: IL2, IL23, IL1β, TGFβ, six days (FIG. 6B)
Procedure: Flow cytometry of IL-17a and IFN-γ production by cord blood naive CD4^+T cells (CD45RO^−CD45RA^+CD3^+CD4^+CD25^−HLA-DR^−)transduced with RORαd-IRES-GFP or RORγt-IRES-GFP on day 1 and analyzed on day 6. GFP expressing cells were gated for analysis. […] Flow cytometry of IL-17a and IFN-γ production by human naive cord blood T cells (CD45RO^−D45RA^+CD3^+CD4^+CD25^−HLA-DR^−), which were cultured for six days in presence of IL2, IL23 and IL1β, and with various concentrations of TGFβ (ng/ml). DMSO or N2 was added 16 hours after the cytokine addition.
The results depict flow cytometry of IL-17a and IFN-γ production by cord blood naive CD4^+ T cells (CD45RO^−CD45RA^+CD3^+CD4^+CD25^−HLA-DR^−)transduced with human RORαd-IRES-GFP or human RORγt-IRES-GFP on day 1 and analyzed on day 6. GFP expressing cells were gated for analysis. […] The results depict flow cytometry of IL-17a and IFN-γ production by human naive cord blood T cells (CD45RO^−D45RA^+CD3^+CD4^+CD25^−HLA-DR^−), which were cultured for six days in the presence of IL2, IL23 and ILβ, and with various concentrations of TGFβ (ng/mL). […] IL-17a-APC (eBio64CAP17 eBioscience) and IFN-γ-PECy7 (45.B3 eBioscience) were used for analysis.

[6] = system: Human memory (CD45RO+CD45RA−CD3+CD4+CCR6+CD161+) cells; assay: Human memory Th17 cell maintenance (IL-17a / IFN-γ staining); format: cell-based; settings: 3 uM, 6 days
Excerpt: Intracellular staining for IFN-γ or IL-17a in memory CD4^+T cells from multiple donors, assessed on day 6. Each symbol (n=11 or 9, respectively) indicates a separate donor.

[7] = IC50(μM), Drosophila S2 cells, Gal4-RORγt luciferase reporter, 20 hr
[8] = S2 cell RORg IC50 μM, S2 cell reporter assay, listed for comparison

RORγt, sequence (P51450 with tags, fused parts or gaps T352K): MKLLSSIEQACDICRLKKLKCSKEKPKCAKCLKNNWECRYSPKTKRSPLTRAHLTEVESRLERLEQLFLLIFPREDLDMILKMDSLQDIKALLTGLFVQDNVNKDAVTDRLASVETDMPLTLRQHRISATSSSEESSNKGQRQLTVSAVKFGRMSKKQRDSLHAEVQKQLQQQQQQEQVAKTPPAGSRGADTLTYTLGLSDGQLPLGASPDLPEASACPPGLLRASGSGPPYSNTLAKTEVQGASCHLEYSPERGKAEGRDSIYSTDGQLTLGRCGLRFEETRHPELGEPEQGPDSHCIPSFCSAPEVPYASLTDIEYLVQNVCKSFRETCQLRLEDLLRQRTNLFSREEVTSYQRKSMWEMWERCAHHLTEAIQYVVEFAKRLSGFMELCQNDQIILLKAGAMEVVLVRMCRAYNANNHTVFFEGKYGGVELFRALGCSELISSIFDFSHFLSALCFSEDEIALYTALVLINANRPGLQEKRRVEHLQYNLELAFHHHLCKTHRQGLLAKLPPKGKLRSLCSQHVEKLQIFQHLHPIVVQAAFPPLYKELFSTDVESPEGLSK

IC50 [1, 7] [µM]	IC50 [1, 8] [µM]	Emax [1] [%]	IC50 [2] [µM]	Structure (SMILES)	binding to human RORγt (displacement of fluorescently-labeled 25-hydroxycholesterol) [3]	Th1 differentiation, as measured by IFNγ production [4]	mouse Th17 cell differentiation, as measured by IL17a production ([2]; 20 μM, compared to DMSO treated cells, FACS (FIG. 3))	concentration at which human Th17 cell differentiation is inhibited [5] [µM]	IL-17a expression in human memory Th17 cells ([6]; multiple donors, IL-17a+IFN-γ+/−, p=0.02 (FIG. 7))	IL-17a−IFN-γ+ memory CD4+ T cells, with versus without compound ([6]; two-tailed unpaired Student's t test (FIG. 7))
1 to 10	1 to 10	93.5	> 20	COc1cc(O)c(C(CC(=O)N2CCCC(C)C2)c2ccccc2C)c(OC)c1 (stereo not drawn) [Compound 63]						
11 to 50	> 20	45.6	> 20	COc1ccc(C(CC(=O)N2CCCC(C)C2)c2c(O)cc(OC)cc2OC)c(OC)c1 (stereo not drawn) [Compound 69]						
1 to 10	1 to 10	96.8	< 1	COc1cc(O)c(C(CC(=O)N2CC(C)CC(C)C2)c2ccc(N(C)C)cc2)c(OC)c1 (stereo not drawn) [Compound 72]						
1 to 10	1 to 10	93.8	< 1	COc1cc(O)c(C(CC(=O)N2CC(C)CC(C)C2)c2ccc(O)cc2)c(OC)c1 (stereo not drawn) [Compound 75]						
< 1	1 to 10	95.4	< 1	COc1cc(O)c(C(CC(=O)N2CC(C)CC(C)C2)c2ccc3c(c2)OCCO3)c(OC)c1 (stereo not drawn) [Compound 76]						
1 to 10	1 to 10	96.4	< 1	COc1cc(OC)c(C(CC(=O)N2CC(C)CC(C)C2)c2ccc3c(c2)OCO3)c(OC)c1 (stereo not drawn) [Compound 134]						
1 to 10	1 to 10	96.5	1 to 10	COCOc1cc(OC)cc(OC)c1C(CC(=O)N1CC(C)CC(C)C1)c1ccc2c(c1)OCO2 (stereo not drawn) [Compound 135]						
1 to 10	1 to 10	90	1 to 10	COc1cc(OC)c(C(CC(=O)N2CC(C)CC(C)C2)c2ccc3c(c2)OCO3)c(OCC#N)c1 (stereo not drawn) [Compound 136]						
11 to 50	11 to 20	98.5	> 20	COc1cc(OC)c(C(CC(=O)N2CC(C)CC(C)C2)c2ccc3c(c2)OCO3)c(OCC(N)=O)c1 (stereo not drawn) [Compound 137]						
				COc1cc(O)c(C(CC(=O)N2CCCC(C)C2)c2ccc3c(c2)OCO3)c(OC)c1 (stereo not drawn) [NCGC00166547]	directly bind to human RORγt	does not inhibit Th1 differentiation	suppress mouse Th17 cell differentiation			
				COc1cc(O)c(C(CC(=O)N2C[C@H](C)C[C@H](C)C2)c2ccc3c(c2)OCO3)c(OC)c1 (stereo partly drawn) [NCGC00238427]				≤ 1	inhibits human Th17 cell memory cells expression of IL-17a	not significant
